Laboratory results as given in US20240000746A1, “New Cooling Agents and Preparations Containing Them” (Symrise AG, priority 2020, published 2024).
Several values for one entry are separate records, joined by “and”; a condition that tells them apart may be missing. Equal entries are not always repeated.

Experiments:
human TRPM8 receptor = biological target: T1, human TRPM8 receptor (Homo sapiens, UniProt Q7Z2W7); assay: Assay on TRPM8 modulators: Ca2+ signal (Fluo-4) in HEK293 cells stably transfected with human TRPM8; assay type: cell-based; design: Relative TRPM8 activation (%): concentration or dose not given beside the values; details: for EC50: HEK293-TRPM8 cells, Fluo-4, read-out: Activity in vitro assay (EC50)
T1 construct: expressed in transfected cells
T1 sequence (Q7Z2W7 whole entry): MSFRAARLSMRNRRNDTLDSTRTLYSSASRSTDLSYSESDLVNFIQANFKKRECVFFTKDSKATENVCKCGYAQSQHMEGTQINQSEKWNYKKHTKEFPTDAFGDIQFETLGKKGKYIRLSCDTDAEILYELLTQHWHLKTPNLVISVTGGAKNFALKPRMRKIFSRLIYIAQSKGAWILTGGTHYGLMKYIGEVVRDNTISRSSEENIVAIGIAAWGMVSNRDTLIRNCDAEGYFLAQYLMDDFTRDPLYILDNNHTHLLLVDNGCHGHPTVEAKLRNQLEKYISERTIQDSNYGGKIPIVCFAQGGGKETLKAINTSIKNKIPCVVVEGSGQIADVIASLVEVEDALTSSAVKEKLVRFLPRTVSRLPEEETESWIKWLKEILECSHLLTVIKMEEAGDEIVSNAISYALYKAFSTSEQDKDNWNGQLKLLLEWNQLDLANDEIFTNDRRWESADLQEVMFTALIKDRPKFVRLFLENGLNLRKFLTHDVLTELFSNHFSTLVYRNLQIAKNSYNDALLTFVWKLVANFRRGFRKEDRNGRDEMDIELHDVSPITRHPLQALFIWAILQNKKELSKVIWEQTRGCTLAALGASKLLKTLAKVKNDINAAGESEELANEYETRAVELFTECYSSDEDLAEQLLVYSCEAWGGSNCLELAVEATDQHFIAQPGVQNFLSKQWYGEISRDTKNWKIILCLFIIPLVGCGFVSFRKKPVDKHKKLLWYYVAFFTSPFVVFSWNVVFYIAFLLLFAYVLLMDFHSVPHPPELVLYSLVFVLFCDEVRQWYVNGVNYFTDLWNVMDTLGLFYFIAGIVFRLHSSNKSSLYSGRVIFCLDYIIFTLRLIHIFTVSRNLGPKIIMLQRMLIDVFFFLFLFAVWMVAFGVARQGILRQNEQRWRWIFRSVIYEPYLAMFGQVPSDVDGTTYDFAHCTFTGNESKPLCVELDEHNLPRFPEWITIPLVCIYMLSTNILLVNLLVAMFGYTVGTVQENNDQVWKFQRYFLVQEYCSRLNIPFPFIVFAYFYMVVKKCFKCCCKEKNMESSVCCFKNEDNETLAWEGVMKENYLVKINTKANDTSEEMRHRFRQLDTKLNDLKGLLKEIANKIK
Excerpt: The starting point for cloning the human TRPM8 receptor is an LnCaP cDNA bank. This is commercially available (e.g. BioChain, Hayward, USA) or can be produced from the androgene-sensitive human prostate adenocarcinoma cell line LnCaP (e.g. ATCC, CRL1740 or ECACC, 891 1021 1) using standard kits.
The coding TRPM8 sequence (see e.g. http://www. ncbi.nlm.nih.gov/entrez/viewer.fcgi?db=nuccore&id=109689694) can be PCR amplified and cloned using standard methods. The human TRPM8 gene isolated in this way was used to produce the plasmid plnd_M8. Alternatively, the TRPM8 gene can also be produced synthetically.
As a test cell system, a stably transfected HEK293 cell line was produced with human TRPM8 DNA. Preference is given to HEK293, which offers the possibility of inducing TRPM8 expression with tetracycline via the introduced plasmid.
A test similar to the one already described in the literature by Behrendt H. J. et al., Br. J. Pharmacol. 141, 2004, 737-745, is performed. The agonisation or antagonisation of the receptor can be quantified by means of a Cab-sensitive dye (e.g. FURA, Fluo-4 etc.). Agonists alone cause an increase in the Ca^2+ signal; antagonists cause a reduction in the Ca^2+ signal in the presence of e.g. menthol (in each case detected via the dye Fluo-4, which has different fluorescence properties due to Ca^2+ ions).
First, a fresh culture of transformed HEK cells is prepared in cell culture flasks in a manner known per se. The HEK293-TRPM8 test cells are detached from the cell culture flasks using trypsin and 40,000 cells/well are seeded with 100 μl medium in 96-hole plates (Greiner #655948 poly-D-lysine-coated). Tetracycline is added to the growth medium to induce receptor TRPM8 (DMEM/HG, 10% FCS tetracycline-free, 4 mM L-glutamine, 15 μg/ml blasticidin, 100 μg/ml hygromycin B, 1 μg/ml tetracycline).
The following day, the cells are loaded with Fluo-4AM dye and the test is performed. The procedure is as follows: Addition of 100 μl/well staining solution Ca-4 Kit (RB 141, Molecular Devices) to each 100 μl medium (DMEM/HG, 10% FCS tetracycline-free, 4 mM L-glutamine, 15 μg/ml blasticidin, 100 μg/ml hygromycin B, 1 μg/ml tetracycline).
Incubation in incubator, 30 minutes/37° C./5% CO2, 30 minutes/RT.
Preparation of the test substances (different concentrations in 200 μl HBSS buffer), as well as positive controls (different concentrations of menthol, icilin or lonomycin in 200 μl HBSS buffer) and negative controls (only 200 μl HBSS buffer) addition of the test substances in amounts of 50 μl/well and measurement of the fluorescence change (e.g. in the assay device FLIPR, Molecular Devices or NovoStar, BMG) at 485 nm excitation, 520 nm emission, and evaluation of the potency of the different substances/concentrations and determination of the EC50 values.
The test substances are used in triplicates in concentrations of 0.1-200 μM in the assay. Normally, the compounds are kept ready in DMSO solutions and diluted down to a maximum DMSO concentration of 2% for the assay.
With the aid of the assay described, the activity of the active substances is determined in relation to activation of the TRPM8 channel. This is done in a concentration-dependent manner. As a standard, 6 to 10 concentrations are measured for each active substance. From the determined activity values, the EC50 value can be determined as the inflection point of the sigmoidal curve using a mathematical method (4-parameter or 5-parameter logistic curve fitting). These are standard methods of biochemistry that are quite familiar to the skilled person.

oral cavity = assay: Sensory tasting of cooling intensity by trained panellists; assay type: in vivo, human; details: 5 ppm in 5% sugar solution, tasted 40 seconds, rated after one minute, scale 1 (very weak) to 9 (very strong)
Experimental: In order to quantify the cooling effect, comparative tests are carried out using menthan-3-carboxylic acid-N-ethylamide as a reference. For these comparative tests, the skilled person replaces the compound or compounds to be used according to the invention with menthan-3-carboxylic acid-N-ethylamide (also referred to as WS-3). Then the intensities of the cooling effects of the respective compounds or active substances are sensory evaluated by trained panellists (n=10 to 11) as described below and compared with each other.
The investigation of the cooling intensity was carried out as follows: Test solutions containing 5 ppm of the compounds of the invention were each tasted in a 5% sugar solution as well as a corresponding solution containing 30 ppm of the reference substance WS-3. […] The corresponding test solutions were tasted by the panellists for a time of exactly 40 seconds, rinsing the entire oral cavity with the corresponding test solution and then spitting out the sample or reference solution. Following the tasting, the test persons rated the respective cooling intensity after one minute according to a scale from 1 (very weak) to 9 (very strong).

SMILES | EC50 (human TRPM8 receptor) | also measured
c1cc(CNCc2ccnc(N3CCSCC3)c2)c2c(c1)OCO2 [Example 22] | 1.19 µM | –
Cc1ccc(CNCc2ccnc(N3CCCCC3)c2)cc1 [Example 41] | 0.15 µM | –
CC1(C)CCCN(c2cc(CNCc3cccc4c3OCO4)ccn2)C1 [Example 17] | 0.72 µM | –
COc1cccc(CNCc2ccnc(N3CCCCC3)c2)c1OC [Example 23] | 0.76 µM | –
CCCC1CCN(c2cc(CNCc3cccc4c3OCO4)ccn2)CC1 [Compound 18 a] | – | Relative TRPM8 activation (%) (human TRPM8 receptor): −0.8%
c1cc(CNCc2ccnc(N3CCOCC3)c2)c2c(c1)OCO2 [Example 2] | 13 µM | –
CC(C)C(NCc1cccc2c1OCO2)c1ccnc(N2CCCCC2)c1 (centres unmarked) [Example 11] | 8.35 µM | –
COc1ccc(CNCc2ccnc(N3CCCCC3)c2)cc1 [Example 27] | 0.1 µM and ≤ 1 µM | –
CC(NCc1cccc2c1OCO2)c1ccnc(N2CCCCC2)c1 (centres unmarked) [Example 8] | 0.15 µM | –
COc1ccc(C(C)NCc2ccnc(N3CCCCC3)c2)cc1 (centres unmarked) [Compound 85] | – | Cooling intensity (oral cavity): 2.1
c1ccc(-c2cccc(CNCc3cccc4c3OCO4)c2)nc1 [Compound 22 c] | – | Relative TRPM8 activation (%) (human TRPM8 receptor): 3.6%
CSc1cc(CNCc2cccc3c2OCO3)ccn1 [Example 29] | 6.5 µM | –
COc1ccc(CNCc2ccnc(N3CCSCC3)c2)cc1 [Example 58] | 15.8 µM | –
COc1cccc(CNCc2ccnc(N3CCCCC3)c2)c1 [Example 49] | 0.6 µM | –
CCOc1cccc(CNCc2ccnc(N3CCCCC3)c2)c1OC [Example 24] | 1.11 µM | –
Cc1ccc(N2CCC(C(=O)NCc3cccc4c3OCO4)CC2)nc1 [Compound 5 a] | – | Relative TRPM8 activation (%) (human TRPM8 receptor): 2.4%
CC1CCCCN1c1cc(CNCc2cccc3c2OCO3)ccn1 (centres unmarked) [Example 14] | 0.33 µM | –
c1ccc(-c2cc(CNCc3cccc4c3OCO4)co2)cc1 [Compound 31 a] | – | Relative TRPM8 activation (%) (human TRPM8 receptor): 0%

SMILES | EC50 (human TRPM8 receptor) | also measured
CCC1CCCN(c2cc(CNCc3cccc4c3OCO4)ccn2)C1 (centres unmarked) [Example 18] | 2.01 µM | –
COc1ccc(CNCc2ccnc(N3CCCCC3)c2)cc1 [Compound 87] | 0.00695 µM | –
CC1(C)CCN(c2cc(CNCc3cccc4c3OCO4)ccn2)CC1 [Example 15] | 2.63 µM | –
c1cc(CNCc2cc3ccccc3o2)c2c(c1)OCO2 [Compound 32 a] | – | Relative TRPM8 activation (%) (human TRPM8 receptor): 1.3%
c1ccc(CNCc2ccnc(N3CCCCC3)c2)cc1 [Example 39] | 0.06 µM | –
O=C(NCc1cccc2c1OCO2)c1ccnc(N2CCCCC2)c1 [Compound 51 a] | – | Relative TRPM8 activation (%) (human TRPM8 receptor): 0%
c1cc(CCNCCc2ccnc(N3CCCCC3)c2)c2c(c1)OCO2 [Example 34] | 0.8 µM | –
CCNC(=O)[C@@H]1C[C@H](C)CC[C@H]1C(C)C [WS-3, L-menthanecarboxylic acid-N-ethylamide, reference compound] | 1.72 µM | –
c1cc(CNCc2ccnc(N3CCCCC3)c2)c2c(c1)OCO2 [Example 1] | 0.115 µM | –
c1ccc(-c2cc(CNCc3cccc4c3OCO4)cs2)cc1 [Compound 43 a] | – | Relative TRPM8 activation (%) (human TRPM8 receptor): 0%
CCN(Cc1ccnc(N2CCC(C)CC2)c1)Cc1cccc2c1OCO2 [Compound 19 a] | – | Relative TRPM8 activation (%) (human TRPM8 receptor): 3.4%
COc1ccc(CNCc2cccc(N3CCCC3)c2)cc1 [Example 64] | 1.77 µM | –
CC1CCN(c2cc(CNCc3cccc4c3OCO4)ccn2)CC1 [Example 12] | 2.01 µM | –
CC1CC(C)CN(c2cc(CNCc3cccc4c3OCO4)ccn2)C1 (centres unmarked) [Example 16] | 2.53 µM | –
CC1CCCN(c2cc(CNCc3cccc4c3OCO4)ccn2)C1 (centres unmarked) [Example 13] | 0.6 µM | –
CCOc1cccc(CNCc2ccnc(N3CCCCC3)c2)c1OCC [Example 25] | 5.86 µM | –
c1cc(CNCc2ccnc(-n3cccc3)c2)c2c(c1)OCO2 [Compound 22 a] | – | Relative TRPM8 activation (%) (human TRPM8 receptor): 3%
